Laboratory results published in patent publication US4471131A, “Novel silyl esters of N-phosphonomethylglycine” (Monsanto Company, priority 1983, dated 1984).

How the values were obtained:
Assay in all cases: post-emergence herbicidal activity, greenhouse
Format in all cases: in vivo
Pennsylvania Smartweed = tested on: Pennsylvania Smartweed
Source text: (§1) A good grade of top soil is placed in aluminum pans having holes in the bottom and compacted to a depth of 0.95 to 1.27 cm. from the top of the pan. A predetermined number of seeds of each of several dicotyledonous and moncotyledonous annual plant species and/or vegetative propagules for the perennial plant species were placed on the soil and pressed into the soil surface. The seeds and/or vegetative propagules are covered with soil and leveled. The pans are then placed on a sand bench in the greenhouse and watered from below as needed. After the plants reach the desired age (two to three weeks), each pan, except for the control pans, is removed individually to a spraying chamber and sprayed by means of an atomizer at the rates noted. In the spray solution is an amount of an emulsifying agent mixture to give a spray solution or suspension which contains about 0.4% by weight of the emulsifier. The spray solution or suspension contains a sufficient amount of the candidate chemical in order to give application rates corresponding to those set forth in the tables. The pans were returned to the greenhouse and watered as before and the injury to the plants as compared to the control is observed at approximately two and four weeks and the results recorded. In the tables, WAT means "weeks after treatment."
(§2) The post-emergent herbicidal activity index used in Tables II and III is as follows:
(§3) The plant species utilized in these tests are identified by letter in accordance with the following legend: […]

Canada Thistle = details: Table II, formulated immediately prior to treatment
Source text: as §1, §2, §3

Downy Brome = tested on: Downy Brome
Source text: as §1, §2, §3

Rice = details: Table III, 2 WAT
Source text: as §1, §2, §3

Yellow Nutsedge = details: Table II, formulated immediately prior to treatment
Source text: as §1, §2, §3

Morningglory = tested on: Morningglory
Source text: as §1, §2, §3

Common Lambsquarters = tested on: Common Lambsquarters
Source text: as §1, §2, §3

Hemp Sesbania = details: Table III, 2 WAT
Source text: as §1, §2, §3

Large Crabgrass = details: Table III, 2 WAT
Source text: as §1, §2, §3

Quackgrass = details: Table II, formulated immediately prior to treatment
Source text: as §1, §2, §3

Cocklebur = tested on: Cocklebur
Source text: as §1, §2, §3

Johnsongrass = details: Table II, formulated immediately prior to treatment
Source text: as §1, §2, §3

Barnyardgrass = tested on: Barnyardgrass
Source text: as §1, §2, §3

Sugar Beet = details: Table III, 2 WAT
Source text: as §1, §2, §3

Panicum Spp = details: Table III, 2 WAT
Source text: as §1, §2, §3

Velvetleaf = tested on: Velvetleaf
Source text: as §1, §2, §3

Wild Buckwheat = details: Table III, 2 WAT
Source text: as §1, §2, §3

Soybean = details: Table III, 2 WAT
Source text: as §1, §2, §3

[1] = Table II, 2 WAT, 5.6 kg/h, formulated immediately prior to treatment
[2] = Table II, 2 WAT, 11.2 kg/h, formulated immediately prior to treatment
[3] = Table II, 4 WAT, 5.6 kg/h, formulated immediately prior to treatment
[4] = Table II, 4 WAT, 11.2 kg/h, formulated immediately prior to treatment

## CC(C)OC(=O)CNCP(=O)(O)O[Si](c1ccccc1)(c1ccccc1)C(C)(C)C [Ex. 2, Glycine, N((([(1,1-Dimethylethyl)Diphenylsilyl]oxy)-Hydroxyphosphinyl)-, methyl)-, 1-Methylethyl Ester]
Pennsylvania Smartweed; [1]
  Plant Response Index (F): 3 (75-99% inhibition)
Pennsylvania Smartweed; [2]
  Plant Response Index (F): 4 (100% inhibition)
Pennsylvania Smartweed; [3]
  Plant Response Index (F): 4 (100% inhibition)
Pennsylvania Smartweed; [4]
  Plant Response Index (F): 4 (100% inhibition)
Pennsylvania Smartweed; Table III, 2 WAT, 1.1 kg/h
  Plant Response Index (F): 3 (75-99% inhibition)
Pennsylvania Smartweed; Table III, 2 WAT, 5.6 kg/h
  Plant Response Index (F): 3 (75-99% inhibition)
Canada Thistle; 2 WAT, 5.6 kg/h
  Plant Response Index (A): 3 (75-99% inhibition)
Canada Thistle; 2 WAT, 11.2 kg/h
  Plant Response Index (A): 1 (25-49% inhibition)
Canada Thistle; 4 WAT, 5.6 kg/h
  Plant Response Index (A): 3 (75-99% inhibition)
Canada Thistle; 4 WAT, 11.2 kg/h
  Plant Response Index (A): 1 (25-49% inhibition)
Downy Brome; [1]
  Plant Response Index (J): 2 (50-74% inhibition)
Downy Brome; [2]
  Plant Response Index (J): 3 (75-99% inhibition)
Downy Brome; [3]
  Plant Response Index (J): 2 (50-74% inhibition)
Downy Brome; [4]
  Plant Response Index (J): 3 (75-99% inhibition)
Downy Brome; Table III, 2 WAT, 1.1 kg/h
  Plant Response Index (J): 0 (0-24% inhibition)
Downy Brome; Table III, 2 WAT, 5.6 kg/h
  Plant Response Index (J): 3 (75-99% inhibition)
Rice; 1.1 kg/h
  Plant Response Index (O): 0 (0-24% inhibition)
Rice; 5.6 kg/h
  Plant Response Index (O): 3 (75-99% inhibition)
Yellow Nutsedge; 2 WAT, 5.6 kg/h
  Plant Response Index (G): 2 (50-74% inhibition)
Yellow Nutsedge; 2 WAT, 11.2 kg/h
  Plant Response Index (G): 2 (50-74% inhibition)
Yellow Nutsedge; 4 WAT, 5.6 kg/h
  Plant Response Index (G): 3 (75-99% inhibition)
Yellow Nutsedge; 4 WAT, 11.2 kg/h
  Plant Response Index (G): 2 (50-74% inhibition)
Morningglory; [1]
  Plant Response Index (D): 2 (50-74% inhibition)
Morningglory; [2]
  Plant Response Index (D): 3 (75-99% inhibition)
Morningglory; [3]
  Plant Response Index (D): 2 (50-74% inhibition)
Morningglory; [4]
  Plant Response Index (D): 3 (75-99% inhibition)
Morningglory; Table III, 2 WAT, 1.1 kg/h
  Plant Response Index (D): 0 (0-24% inhibition)
Morningglory; Table III, 2 WAT, 5.6 kg/h
  Plant Response Index (D): 3 (75-99% inhibition)
Common Lambsquarters; [1]
  Plant Response Index (E): 3 (75-99% inhibition)
Common Lambsquarters; [2]
  Plant Response Index (E): 3 (75-99% inhibition)
Common Lambsquarters; [3]
  Plant Response Index (E): 2 (50-74% inhibition)
Common Lambsquarters; [4]
  Plant Response Index (E): 3 (75-99% inhibition)
Common Lambsquarters; Table III, 2 WAT, 1.1 kg/h
  Plant Response Index (E): 3 (75-99% inhibition)
Common Lambsquarters; Table III, 2 WAT, 5.6 kg/h
  Plant Response Index (E): 3 (75-99% inhibition)
Hemp Sesbania; 1.1 kg/h
  Plant Response Index (R): 0 (0-24% inhibition)
Hemp Sesbania; 5.6 kg/h
  Plant Response Index (R): 3 (75-99% inhibition)
Large Crabgrass; 1.1 kg/h
  Plant Response Index (T): 2 (50-74% inhibition)
Large Crabgrass; 5.6 kg/h
  Plant Response Index (T): 3 (75-99% inhibition)
Quackgrass; 2 WAT, 5.6 kg/h
  Plant Response Index (H): 3 (75-99% inhibition)
Quackgrass; 2 WAT, 11.2 kg/h
  Plant Response Index (H): 3 (75-99% inhibition)
Quackgrass; 4 WAT, 5.6 kg/h
  Plant Response Index (H): 3 (75-99% inhibition)
Quackgrass; 4 WAT, 11.2 kg/h
  Plant Response Index (H): 4 (100% inhibition)
Cocklebur; [1]
  Plant Response Index (B): 2 (50-74% inhibition)
Cocklebur; [2]
  Plant Response Index (B): 3 (75-99% inhibition)
Cocklebur; [3]
  Plant Response Index (B): 2 (50-74% inhibition)
Cocklebur; [4]
  Plant Response Index (B): 3 (75-99% inhibition)
Cocklebur; Table III, 2 WAT, 1.1 kg/h
  Plant Response Index (B): 0 (0-24% inhibition)
Cocklebur; Table III, 2 WAT, 5.6 kg/h
  Plant Response Index (B): 3 (75-99% inhibition)
Johnsongrass; 2 WAT, 5.6 kg/h
  Plant Response Index (I): 3 (75-99% inhibition)
Johnsongrass; 2 WAT, 11.2 kg/h
  Plant Response Index (I): 3 (75-99% inhibition)
Johnsongrass; 4 WAT, 5.6 kg/h
  Plant Response Index (I): 3 (75-99% inhibition)
Johnsongrass; 4 WAT, 11.2 kg/h
  Plant Response Index (I): 3 (75-99% inhibition)
Barnyardgrass; [1]
  Plant Response Index (K): 3 (75-99% inhibition)
Barnyardgrass; [2]
  Plant Response Index (K): 3 (75-99% inhibition)
Barnyardgrass; [3]
  Plant Response Index (K): 3 (75-99% inhibition)
Barnyardgrass; [4]
  Plant Response Index (K): 3 (75-99% inhibition)
Barnyardgrass; Table III, 2 WAT, 1.1 kg/h
  Plant Response Index (K): 1 (25-49% inhibition)
Barnyardgrass; Table III, 2 WAT, 5.6 kg/h
  Plant Response Index (K): 3 (75-99% inhibition)
Sugar Beet; 1.1 kg/h
  Plant Response Index (M): 0 (0-24% inhibition)
Sugar Beet; 5.6 kg/h
  Plant Response Index (M): 2 (50-74% inhibition)
Panicum Spp; 1.1 kg/h
  Plant Response Index (S): 0 (0-24% inhibition)
Panicum Spp; 5.6 kg/h
  Plant Response Index (S): 3 (75-99% inhibition)
Velvetleaf; [1]
  Plant Response Index (C): 2 (50-74% inhibition)
Velvetleaf; [2]
  Plant Response Index (C): 3 (75-99% inhibition)
Velvetleaf; [3]
  Plant Response Index (C): 2 (50-74% inhibition)
Velvetleaf; [4]
  Plant Response Index (C): 3 (75-99% inhibition)
Velvetleaf; Table III, 2 WAT, 1.1 kg/h
  Plant Response Index (C): 0 (0-24% inhibition)
Velvetleaf; Table III, 2 WAT, 5.6 kg/h
  Plant Response Index (C): 3 (75-99% inhibition)
Wild Buckwheat; 1.1 kg/h
  Plant Response Index (Q): 0 (0-24% inhibition)
Wild Buckwheat; 5.6 kg/h
  Plant Response Index (Q): 3 (75-99% inhibition)
Soybean; 1.1 kg/h
  Plant Response Index (L): 0 (0-24% inhibition)
Soybean; 5.6 kg/h
  Plant Response Index (L): 2 (50-74% inhibition)
